How the values were obtained:
Assay type in all cases: biochemical
[1] = target: PKC delta kinase (Homo sapiens, UniProt Q05655); experiment: PKC delta kinase coupled-enzyme (NADH consumption) Ki assay; conditions: 150 μM ATP, 46 nM PKC delta kinase, 30° C.
Description: (§1) An assay buffer solution was prepared which consisted of 100 mM HEPES (pH 7.5), 10 mM MgCl2, 25 mM NaCl, 0.1 mM EDTA and 0.01% Brij. […] To 16 μL of this enzyme buffer, in a 384 well plate, was added 1 μL of VRT stock solution in DMSO. The mixture was allowed to equilibrate for 10 mins at 30° C. The enzyme reaction was initiated by the addition of 16 μL stock ATP solution prepared in assay buffer to a final assay concentration of 150 μM. Initial rate data was determined from the rate of change of absorbance at 340 nm (corresponding to stoichiometric consumption of NADH) using a Molecular Devices Spectramax plate reader (Sunnyvale, Calif.) over 15 mins at 30° C. […] Ki values were calculated from initial rate data by non-linear regression using the Prism software package (Prism 4.0a, Graphpad Software, San Diego, Calif.).

[2] = target: PKC theta kinase (Homo sapiens, UniProt Q04759); experiment: PKC theta kinase coupled-enzyme (NADH consumption) Ki assay; conditions: 240 μM ATP, 18 nM PKC theta kinase, 30° C.
Chain of PKC theta kinase (Q04759 whole entry): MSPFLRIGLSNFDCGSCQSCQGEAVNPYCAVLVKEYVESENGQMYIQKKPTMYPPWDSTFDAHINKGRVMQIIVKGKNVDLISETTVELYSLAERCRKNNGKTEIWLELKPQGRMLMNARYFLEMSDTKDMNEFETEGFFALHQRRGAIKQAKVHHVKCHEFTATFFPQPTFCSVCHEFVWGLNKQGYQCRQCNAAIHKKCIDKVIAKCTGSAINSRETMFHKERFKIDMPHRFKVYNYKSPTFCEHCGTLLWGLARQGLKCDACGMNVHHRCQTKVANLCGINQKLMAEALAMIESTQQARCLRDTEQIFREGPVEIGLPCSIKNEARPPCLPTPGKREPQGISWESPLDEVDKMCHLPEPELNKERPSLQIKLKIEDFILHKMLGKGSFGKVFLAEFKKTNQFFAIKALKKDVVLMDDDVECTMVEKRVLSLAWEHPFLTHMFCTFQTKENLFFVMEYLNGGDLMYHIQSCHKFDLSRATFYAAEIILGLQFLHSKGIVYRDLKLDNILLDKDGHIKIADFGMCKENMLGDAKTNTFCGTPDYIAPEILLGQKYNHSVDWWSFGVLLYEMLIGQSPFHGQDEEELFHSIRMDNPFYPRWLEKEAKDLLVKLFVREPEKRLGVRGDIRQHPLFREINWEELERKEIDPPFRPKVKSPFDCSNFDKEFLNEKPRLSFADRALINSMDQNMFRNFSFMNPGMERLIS
Description: as §1, with “l An” for “An”, “To 60” for “To 16”, “added 2” for “added 1”, “of 5” for “of 16”, “of 240” for “of 150”

[3] = target: PKC alpha kinase (Homo sapiens, UniProt P17252); experiment: PKC alpha kinase coupled-enzyme (NADH consumption) Ki assay; conditions: 130 μM ATP, 4.5 nM PKC alpha kinase, 30° C.
Description: as §1, with “EDTA, 100 μM CaCl2” for “EDTA”, “130” for “150”

Chain of PKC delta kinase (Q05655 whole entry): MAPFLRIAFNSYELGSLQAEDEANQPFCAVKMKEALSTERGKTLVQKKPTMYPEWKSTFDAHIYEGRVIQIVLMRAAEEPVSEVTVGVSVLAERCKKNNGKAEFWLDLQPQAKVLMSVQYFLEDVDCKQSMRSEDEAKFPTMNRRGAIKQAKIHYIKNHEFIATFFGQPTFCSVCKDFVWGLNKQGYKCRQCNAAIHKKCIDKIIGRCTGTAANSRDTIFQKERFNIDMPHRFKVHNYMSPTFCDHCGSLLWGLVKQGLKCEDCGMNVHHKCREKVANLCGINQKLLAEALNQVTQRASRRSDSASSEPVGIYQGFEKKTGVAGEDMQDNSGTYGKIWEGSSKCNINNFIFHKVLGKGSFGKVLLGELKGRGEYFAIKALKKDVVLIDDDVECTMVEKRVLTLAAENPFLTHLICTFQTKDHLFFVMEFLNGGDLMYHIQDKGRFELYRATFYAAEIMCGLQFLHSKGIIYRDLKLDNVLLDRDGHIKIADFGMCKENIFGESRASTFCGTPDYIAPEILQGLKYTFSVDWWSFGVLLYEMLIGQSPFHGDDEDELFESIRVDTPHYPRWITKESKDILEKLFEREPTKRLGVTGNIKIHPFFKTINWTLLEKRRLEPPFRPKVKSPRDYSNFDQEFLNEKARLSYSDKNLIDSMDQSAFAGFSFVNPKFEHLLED

| SMILES | Ki [1] | Ki [2] | Ki [3] |
| --- | --- | --- | --- |
| CC(C)C[C@H]1CN(c2csc(-c3n[nH]c4ncccc34)n2)CCN1 [Compound 3, (S)-4-(3-isobutylpiperazin-1-yl)-2-(1H-pyrazolo[3,4-b]pyridin-3-yl)thiazole] | < 2800 nM | < 50 nM | > 1250 nM |
| c1cnc2[nH]nc(-c3nn(C4CCNCC4)c4ccccc34)c2c1 [Compound 4, 3-(1-(piperidin-4-yl)-1H-indazol-3-yl)-1H-pyrazolo[3,4-b]pyridine] | < 2800 nM | < 500 nM | > 1250 nM |
| CC(C)C[C@H]1CN(c2cn(C)c(-c3n[nH]c4ncccc34)n2)CCN1 [Compound 6, 3-(4-((S)-3-isobutylpiperazin-1-yl)-1-methyl-1H-imidazol-2-yl)-1H-pyrazolo[3,4-b]pyridine] | > 2000 nM | > 700 nM | > 1250 nM |
| Cc1sc(N2CCCNCC2)nc1-c1n[nH]c2ncccc12 [Compound 1] |  | > 2800 nM |  |
| Cc1cn(C2CCNCC2)nc1-c1n[nH]c2ncccc12 [Compound 5, 3-(4-methyl-1-(piperidin-4-yl)-1H-pyrazol-3-yl)-1H-pyrazolo[3,4-b]pyridine] | > 2000 nM | > 700 nM | > 1250 nM |
| Cc1sc(N2CCN[C@@H](CC(C)C)C2)nc1-c1n[nH]c2ncccc12 [Compound 2] | > 2000 nM | < 500 nM | > 1250 nM |

Reference: patent US8563576B2 (Vertex Pharmaceuticals Incorporated, priority 2008, dated 2013)
